Source: US8772445B2, “Production and use of antitumoral cyclodepsipeptides” (Helmholtz-Zentrum Fuer Ozeanforschung Kiel (Geomar), priority 2008, dated 2014)

Columns and labels:
Experiment in all cases: crystal violet assay, antiproliferative effect against tumor cells
Type in all cases: cell-based
[1] = tested on: intestinal tumor cell line HT29; conditions: Homo sapiens, HT-29; HT29, at 1 μg/mL, on average
Procedure: (§1) 4) Determination of the Antiproliferative Effect Against Tumor Cells
(§2) The substances Scopularid A and Scopularid B have shown significant inhibitory action against tumor cell lines, in particular pancreatic tumor cell lines Colo357 and Panc89 and also intestinal tumor cell lines HT29 (on average an inhibition between 25-50% at 1 μg/mL). This activity was determined using the crystal violet assay (Siegmund, D. et al. “Death receptor-induced signalling pathways are differentially regulated by gamma interferon upstream of caspase 8 processing.” Mol. Cell. Biol. 2005; 25: 6363-6379).

[2] = tested on: pancreatic tumor cell line Colo357; conditions: for inhibition at 1 µg/mL: Homo sapiens, Colo357, at 1 μg/mL, on average
Procedure: as §1, §2

[3] = tested on: pancreatic tumor cell line Panc89; conditions: Panc89, at 1 μg/mL, on average
Procedure: as §1, §2

Row | Structure (SMILES) | inhibition at 1 µg/mL [1] | inhibition at 1 µg/mL [2] | inhibition at 1 µg/mL [3] | antiproliferative effect against tumor cells (in words) ([2]; tumor cell lines, in particular Colo357)
1 | CCCCCCC(C)C1CC(=O)NCC(=O)N[C@@H](C(C)C)C(=O)N[C@H](CC(C)C)C(=O)N[C@@H](C)C(=O)N[C@@H](Cc2ccccc2)C(=O)O1 (stereo partly shown) [Scopularid A] | 25 to 50% | 25 to 50% | 25 to 50% | –
2 | CCCCC(C)C1CC(=O)NCC(=O)N[C@@H](C(C)C)C(=O)N[C@H](CC(C)C)C(=O)N[C@@H](C)C(=O)N[C@@H](Cc2ccccc2)C(=O)O1 (stereo partly shown) [Scopularid B] | 25 to 50% | 25 to 50% | 25 to 50% | significant inhibitive effect
